Experimental data taken from article PMC8694169 (Microbiology Spectrum, 2021).
Where two headings read alike, the source gives them in different places. Where a SMILES comes first, the peptide text is derived from it. Where no end group is shown, it is not given here.

Key:
HLA-A*24:02 [1] = biological target: T1, HLA-A*24:02 (Homo sapiens, UniProt P04439, D101N/D140Y/D185E/E176V/E190D/F33S/G103R/G107R/I119L/I121M/I306V/K335N/L105A/L180Q/L300P/N151K/N90K/Q86E/Q94H/R106L/R138H/R89G/T104I/T345S/V100E/W191G/Y123F); assay: cell-based; type: binding
[2] = tested on: IFN-γ-producing CD8+ T cells; assay: Intracellular IFN-γ staining (ICS) of spleen CD8+ T cells after immunization with liposomal peptides; type: in vivo, HLA-A*24:02 transgenic mice; conditions: mice immunized with liposomal peptides + CpG; result in words
human lymphocytes = conditions: epitopes of same sequence submitted as HLA-A*24:02-restricted pp1a-specific CTL epitopes; ref Virus Pathogen Database and Analysis Resource; cited from earlier work
HLA-A*24:02 [3] = biological target: T1, HLA-A*24:02; conditions: ref Virus Pathogen Database and Analysis Resource; cited from earlier work
IFN-γ+ CD8+ T cells = assay: Comparison of conserved top 4 peptides, ICS after immunization with 4-peptide mixture in liposomes; type: in vivo, HLA-A*24:02 transgenic mice; conditions: eight mice immunized with mixture of pp1a-1417, -3104, -3792, -4229 in liposomes with CpG; spleen cells + peptide 5 h; one-way ANOVA; Fig. 5A
CD107a+ CD8+ T cells = assay: Comparison of conserved top 4 peptides, CD107a on CD8+ T cells; type: in vivo, HLA-A*24:02 transgenic mice; conditions: eight mice immunized with 4-peptide mixture in liposomes with CpG; spleen cells + 50 μM peptide 6 h; one-way ANOVA; Fig. 5B
[4] = […], mean ± SD, triplicate, repeated twice, ND = not detected, read-out: BL50 (half-maximal binding level, peptide concentration that yields 50% relative binding)

| Molecule | EC50 (HLA-A*24:02 [1]; [4]) [µM] | detection of IFN-γ-producing CD8+ T cells in immunized mice [2] | further results |
| --- | --- | --- | --- |
| NYLKRRVVF [pp1a-3159] | 114 ± 5.3 | – | – |
| QYGRSGETL [pp1a-96] | 124 ± 10.9 | – | – |
| AYILFTRFF [pp1a-2330] | 0.8 ± 0.1 | significant numbers | result in T cell assays using human lymphocytes (human lymphocytes): positive |
| LFVAAIFYL [pp1a-2781] | 183 ± 8.2 | – | – |
| MFTPLIQPI [pp1a-3030] | 251 ± 88.7 | – | – |
| TFHLDGEVI [pp1a-1543] | 100 ± 6.8 | – | – |
| VFLFVAAIF [pp1a-2779] | 8.6 ± 0.4 | significant numbers | – |
| YYHTTDPSF [pp1a-1634] | 0.04 | – | – |
| GYVTHGLNL [pp1a-1451] | 109 ± 8.9 | – | – |
| TFNGECPNF [pp1a-265] | 1.7 ± 0.4 | significant numbers | result in T cell assays using human lymphocytes (human lymphocytes): positive |
| MFDAYVNTF [pp1a-2590] | 7.7 ± 0.6 | significant numbers | – |
| FYENAFLPF [pp1a-3606] | 0.02 ± 0.01 | significant numbers | – |
| NFTIKGSFL [pp1a-3396] | 134 ± 7.6 | – | – |
| KYLYFIKGL [pp1a-4226] | – | – | EC50 (HLA-A*24:02 [1]; SD): 109 ± 1.3 µM |
| AFVETVKGL [pp1a-486] | 278 ± 49.8 | – | – |
| DYQGKPLEF [pp1a-954] | 126 ± 23.9 | – | – |
| MFVKHKHAF [pp1a-3627] | 241 ± 33.6 | – | – |
| QYELKHGTF [pp1a-1813] | 141 ± 8 | – | – |
| CC(C)C[C@H](NC(=O)[C@H](CC(C)C)NC(=O)[C@H](CS)NC(=O)[C@H](Cc1ccccc1)NC(=O)[C@H](CC(C)C)NC(=O)CNC(=O)[C@H](Cc1ccccc1)NC(=O)[C@H](Cc1ccc(O)cc1)NC(=O)[C@@H](N)CS)C(=O)O [pp1a-3792] (H-CYFGLFCLL-OH; N-terminus and C-terminus assumed) | – | significant numbers | – |
| NFNQHEVLL [pp1a-1137] | 55.3 ± 2 | – | – |
| DYLVSTQEF [pp1a-3812] | – | – | EC50 (HLA-A*24:02 [1]; SD): 0.9 ± 0.1 µM |

| Molecule | EC50 (HLA-A*24:02 [1]; [4]) [µM] | detection of IFN-γ-producing CD8+ T cells in immunized mice [2] | further results |
| --- | --- | --- | --- |
| MFLARGIVF [pp1a-3752] | 24.2 ± 1.5 | significant numbers | – |
| FYLTNDVSF [pp1a-3114] | 0.01 | significant numbers | result in the binding assay (HLA-A*24:02 [3]): positive; result in T cell assays using human lymphocytes (human lymphocytes): negative |
| TFFKLVNKF [pp1a-677] | 55.9 ± 3.3 | – | – |
| SYLFQHANL [pp1a-1733] | 3 ± 0.4 | – | – |
| FFSYFAVHF [pp1a-2350] | 1.4 ± 0.1 | significant numbers | – |
| AFLPFAMGI [pp1a-3610] | 183 ± 8.2 | – | – |
| AFEKMVSLL [pp1a-3907] | 114 ± 3.1 | – | – |
| YYRSLPGVF [pp1a-3010] | 122 ± 18.8 | – | – |
| PFWITIAYI [pp1a-3137] | 103 ± 8.4 | – | – |
| NFSKLINII [pp1a-2222] | 181 ± 32.5 | – | – |
| YYKKDNSYF [pp1a-1899] | 0.3 | significant numbers | result in T cell assays using human lymphocytes (human lymphocytes): positive |
| KFKEGVEFL [pp1a-634] | 79.6 ± 6.6 | significant numbers | – |
| LYCIDGALL [pp1a-1845] | 38.5 ± 8.2 | significant numbers | – |
| YYTSNPTTF [pp1a-1536] | 0.05 | – | – |
| KFVCDNIKF [pp1a-1929] | 61.7 ± 1.6 | – | – |
| TFCAGSTFI [pp1a-2457] | 127 ± 20.2 | – | – |
| VYSVIYLYL [pp1a-3104] | 0.5 | significant numbers | dominance in induction of peptide-specific IFN-γ+ CD8+ T cells among conserved top 4 peptides (IFN-γ+ CD8+ T cells): far superior to all other peptides; result in the binding assay (HLA-A*24:02 [3]): positive; dominance in CD107a induction of CD8+ T cells among conserved top 4 peptides (CD107a+ CD8+ T cells): statistically predominant over pp1a-1417 and -4229; result in T cell assays using human lymphocytes (human lymphocytes): negative |
| VYEKLKPVL [pp1a-620] | 264 ± 21.4 | – | – |
| IFGTVYEKL [pp1a-616] | 122 ± 18 | – | – |
| LYDKLVSSF [pp1a-1182] | 1 ± 0.3 | significant numbers | result in T cell assays using human lymphocytes (human lymphocytes): positive |
| SYSGQSTQL [pp1a-1515] | 45.8 ± 10.5 | – | – |

| Molecule | EC50 (HLA-A*24:02 [1]; [4]) [µM] | detection of IFN-γ-producing CD8+ T cells in immunized mice [2] | further results |
| --- | --- | --- | --- |
| DFVKATCEF [pp1a-335] | 127 ± 3.8 | – | – |
| PYCYDTNVL [pp1a-2931] | 6.8 ± 1 | – | – |
| YFIKGLNNL [pp1a-4229] | 32.1 ± 1.9 | significant numbers | – |
| FYVLGLAAI [pp1a-2338] | 0.7 ± 0.1 | significant numbers | – |
| AFYILPSII [pp1a-1352] | 64.4 ± 9.2 | – | – |
| DYKHYTPSF [pp1a-1971] | 58.4 ± 11.7 | – | – |
| GYKSVNITF [pp1a-835] | 0.1 | significant numbers | – |
| AFGLVAEWF [pp1a-2320] | 135 ± 39.1 | – | – |
| YFTEQPIDL [pp1a-1906] | 113 ± 9.4 | – | – |
| MYASAVVLL [pp1a-3684] | 0.4 ± 0.1 | significant numbers | result in the binding assay (HLA-A*24:02 [3]): positive; result in T cell assays using human lymphocytes (human lymphocytes): negative |
| DYGARFYFY [pp1a-1417] | 16.1 ± 0.8 | significant numbers | – |
| SYGADLKSF [pp1a-135] | 104 ± 17.7 | – | – |
| LFLMSFTVL [pp1a-3084] | 100 ± 7.6 | – | – |
| WFLLLSVCL [pp1a-2232] | 279 ± 12.6 | – | – |
| FYWFFSNYL [pp1a-3153] | 3.9 ± 1.3 | significant numbers | – |
| IYLYLTFYL [pp1a-3108] | 100 ± 13.8 | – | – |
| TFDNLKTLL [pp1a-1552] | 96.1 ± 1.6 | – | – |
| LYIDINGNL [pp1a-1255] | 40.4 ± 8.6 | significant numbers | – |
| KFLTENLLL [pp1a-1247] | 33.4 ± 1.9 | – | – |
